The structures appear in SMILES notation.

Here are results for 1 molecule from PubChem BioAssay AID602350 (Broad Institute, 2012).

This experiment deals with Protein disulfide-isomerase (Homo sapiens) (UniProt P07237). In words: inhibition of PDI-driven insulin aggregation – biochemical, turbidity, absorbance, cherry-picked samples, dose response (AID 602350).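 Also: potency is for inhibitors that reduce insulin aggregation absorbance.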 The conditions noted are these: recombinant PDI insulin aggregation, absorbance 650 nm, 90 min.
Protein disulfide-isomerase (Homo sapiens), sequence (P07237 whole entry, looked up): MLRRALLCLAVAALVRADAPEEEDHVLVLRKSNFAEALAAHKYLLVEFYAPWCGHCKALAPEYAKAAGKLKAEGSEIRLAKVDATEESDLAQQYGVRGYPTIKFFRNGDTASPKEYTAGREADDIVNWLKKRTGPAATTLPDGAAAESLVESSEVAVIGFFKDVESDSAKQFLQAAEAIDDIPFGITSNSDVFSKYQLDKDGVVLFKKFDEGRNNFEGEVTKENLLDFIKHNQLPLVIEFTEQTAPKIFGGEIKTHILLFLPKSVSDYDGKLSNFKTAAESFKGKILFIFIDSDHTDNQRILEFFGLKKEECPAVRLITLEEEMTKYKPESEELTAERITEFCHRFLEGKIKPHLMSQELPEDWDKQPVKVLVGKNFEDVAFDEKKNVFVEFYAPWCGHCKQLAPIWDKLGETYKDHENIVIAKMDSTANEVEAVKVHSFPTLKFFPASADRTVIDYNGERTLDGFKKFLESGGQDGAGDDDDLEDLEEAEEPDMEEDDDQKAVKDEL

Consider `Cc1noc(C)c1S(=O)(=O)Nc1ccc2c(c1)CC(=O)N([C@@H](C)CO)C[C@@H](C)[C@H](CN(C)S(=O)(=O)c1ccc(F)cc1)O2`, for which the half-maximal activity concentration (AC50) is 19.5 µM.
